Assay results taken from US20230033285A1, “Protease Inhibitors for Treatment of Coronavirus Infections” (The Scripps Research Institute, priority 2021, published 2023).

What follows are compounds tested on SARS-CoV-2 (assay: microbe, parasite or virus in culture). Conditions: Severe acute respiratory syndrome coronavirus 2, HeLa-ACE2, 24 h, read-out: EC50, μM (Hela).
Format: cell-based
For `CC(C)(C)[C@H](NC(=O)C(F)(F)F)C(=O)N1C[C@H]2[C@@H]([C@H]1C(=O)N[C@H](C#N)C[C@@H]1CCCNC1=O)C2(C)C` [Compound 63, (1R,2S,5S)-N-((S)-1-cyano-2-((S)-2-oxopiperidin-3-yl)ethyl)-3-((S)-3,3-dimethyl-2-(2,2,2-trifluoroacetamido)butanoyl)-6,6-dimethyl-3-azabicyclo[3.1.0]hexane-2-carboxamide], the EC50 was less than 0.05 µM.

Same assay, conditions: Severe acute respiratory syndrome coronavirus 2; HeLa-ACE2 cells infected with SARS-CoV-2, 24 h, immunofluorescence of infected cells; read-out: EC50, μM (Hela)
`COc1cccc(C)c1NC(=O)C(=O)N[C@@H](CC(C)C)C(=O)N[C@@H](C[C@@H]1CCNC1=O)C(=O)CO` [Compound 16, N^1-((S)-1-(((S)-4-hydroxy-3-oxo-1-((S)-2-oxopyrrolidin-3-yl)butan-2-yl)amino)-4-methyl-1-oxopentan-2-yl)-N^2-(2-methoxy-6-methylphenyl)oxalamide] showed an EC50 of 0.2 to 0.5 µM.
`CC(C)C[C@H](NC(=O)C(=O)Nc1ccccc1F)C(=O)N[C@H](C=O)C[C@@H]1CCCNC1=O` [Compound 41, N^1-(2-fluorophenyl)-N^2-((S)-4-methyl-1-oxo-1-(((S)-1-oxo-3-((S)-2-oxopiperidin-3-yl)propan-2-yl)amino)pentan-2-yl)oxalamide] showed an EC50 of 0.05 to 0.2 µM.
With `CCCCCCCCCCCCCCC(=O)OCC(=O)[C@H](C[C@@H]1CCNC1=O)NC(=O)[C@H](CC(C)C)NC(=O)C(=O)Nc1ccccc1F` [Compound 4, (S)-3-((S)-2-(2-((2-fluorophenyl)amino)-2-oxoacetamido)-4-methylpentanamido)-2-oxo-4-((S)-2-oxopyrrolidin-3-yl)butyl pentadecanoate] the EC50 was 0.2 to 0.5 µM.
Compound `CC(C)C[C@H](NC(=O)c1cc(-c2ccccn2)on1)C(=O)N[C@H](C=O)C[C@@H]1CCNC1=O` [Compound 128, N-((S)-4-methyl-1-oxo-1-(((S)-1-oxo-3-((S)-2-oxopyrrolidin-3-yl)propan-2-yl)amino)pentan-2-yl)-5-(pyridin-2-yl)isoxazole-3-carboxamide] has an EC50 greater than 1 µM.
In the case of `COc1cccc(NC(=O)C(=O)N[C@@H](CC(C)C)C(=O)N[C@@H](C[C@@H]2CCNC2=O)C(=O)CO)c1` [Compound 9], the EC50 is reported as 0.05 to 0.2 µM.
`O=C(Nc1ccccc1F)C(=O)N1CC2(CC2)C[C@H]1C(=O)N[C@@H](C[C@@H]1CCNC1=O)C(=O)CO` [Compound 93, (S)-5-(2-((2-fluorophenyl)amino)-2-oxoacetyl)-N-((S)-4-hydroxy-3-oxo-1-((S)-2-oxopyrrolidin-3-yl)butan-2-yl)-5-azaspiro[2.4]heptane-6-carboxamide] showed an EC50 of 0.2 to 0.5 µM.
`CC(C)C[C@H](NC(=O)C(=O)NC12CCC(F)(CC1)CC2)C(=O)N[C@@H](C[C@@H]1CCCNC1=O)C(=O)CO` [Compound 135, N^1-(4-fluorobicyclo[2.2.2]octan-1-yl)-N^2-((S)-1-(((S)-4-hydroxy-3-oxo-1-((S)-2-oxopiperidin-3-yl)butan-2-yl)amino)-4-methyl-1-oxopentan-2-yl)oxalamide] gave an EC50 greater than 1 µM.
Compound `CC1(C)[C@@H]2[C@@H](C(=O)N[C@H](C=O)C[C@@H]3CCCNC3=O)N(C(=O)C(=O)NC3CCCCC3)C[C@@H]21` [Compound 48, (1R,2S,5S)-3-(2-(cyclohexylamino)-2-oxoacetyl)-6,6-dimethyl-N-((S)-1-oxo-3-((S)-2-oxopiperidin-3-yl)propan-2-yl)-3-azabicyclo[3.1.0]hexane-2-carboxamide] has an EC50 of 0.5 to 1 µM.
`CC(C)C[C@H](NC(=O)C(=O)Nc1ccccc1F)C(=O)N[C@H](C=O)C[C@@H]1CCNC1=O` [Compound 39, N^1-(2-fluorophenyl)-N^2-((S)-4-methyl-1-oxo-1-(((S)-1-oxo-3-((S)-2-oxopyrrolidin-3-yl)propan-2-yl)amino)pentan-2-yl)oxalamide] showed an EC50 of 0.05 to 0.2 µM.
Compound `COc1cccc2[nH]c(C(=O)N[C@@H](CC(C)C)C(=O)N[C@@H](C[C@@H]3CCNC3=O)C(=O)COC(=O)C3CCC(N4CCCCC4)CC3)cc12` (stereo partly drawn) [Compound 124, (S)-3-((S)-2-(4-methoxy-1H-indole-2-carboxamido)-4-methylpentanamido)-2-oxo-4-((S)-2-oxopyrrolidin-3-yl)butyl 4-(piperidin-1-yl)cyclohexane-1-carboxylate] has an EC50 greater than 1 µM.
`CC(C)C[C@H](NC(=O)C(=O)Nc1ccccc1F)C(=O)N[C@@H](C[C@@H]1CCCNC1=O)C(=O)CO` [Compound 21, N^1-(2-fluorophenyl)-N^2-((S)-1-(((S)-4-hydroxy-3-oxo-1-((S)-2-oxopiperidin-3-yl)butan-2-yl)amino)-4-methyl-1-oxopentan-2-yl)oxalamide] was tested, and the EC50 was 0.05 to 0.2 µM.
`CC(C)C[C@H](NC(=O)C(=O)NC1(C)CC1)C(=O)N[C@H](C=O)C[C@@H]1CCNC1=O` [Compound 43, N^1-((S)-4-methyl-1-oxo-1-(((S)-1-oxo-3-((S)-2-oxopyrrolidin-3-yl)propan-2-yl)amino)pentan-2-yl)-N^2-(1-methylcyclopropyl)oxalamide] gave an EC50 greater than 1 µM.
Work on `CC(C)C[C@H](NC(=O)C(=O)Nc1ccccc1)C(=O)N[C@@H](C[C@@H]1CCNC1=O)C(=O)CO` [Compound 2, N^1-((S)-1-(((S)-4-hydroxy-3-oxo-1-((S)-2-oxopyrrolidin-3-yl)butan-2-yl)amino)-4-methyl-1-oxopentan-2-yl)-N^2-phenyloxalamide] yielded an EC50 greater than 1 µM.
Compound `N#C[C@H](C[C@@H]1CCNC1=O)NC(=O)[C@@H]1CC2(CC2)CN1C(=O)C(=O)Nc1ccccc1F` [Compound 64, (S)-N-((S)-1-cyano-2-((S)-2-oxopyrrolidin-3-yl)ethyl)-5-(2-((2-fluorophenyl)amino)-2-oxoacetyl)-5-azaspiro[2.4]heptane-6-carboxamide] has an EC50 greater than 1 µM.
With `O=C(Nc1ccccc1F)C(=O)N1C[C@@H]2CCC[C@@H]2[C@H]1C(=O)N[C@@H](C[C@@H]1CCNC1=O)C(=O)CO` [Compound 30, (1S,3aR,6aS)-2-(2-((2-fluorophenyl)amino)-2-oxoacetyl)-N-((S)-4-hydroxy-3-oxo-1-((S)-2-oxopyrrolidin-3-yl)butan-2-yl)octahydrocyclopenta[c]pyrrole-1-carboxamide] the EC50 was 0.05 to 0.2 µM.
With `CCCCCCCCCCCCCCC(=O)OCC(=O)[C@H](C[C@@H]1CCNC1=O)NC(=O)[C@H](CC(C)C)NC(=O)c1cc2c(OC)cccc2[nH]1` [Compound 137, (S)-3-((S)-2-(4-methoxy-1H-indole-2-carboxamido)-4-methylpentanamido)-2-oxo-4-((S)-2-oxopyrrolidin-3-yl)butyl pentadecanoate] the EC50 was 0.2 to 0.5 µM.
For `CC(C)(C)C[C@H](NC(=O)C(=O)Nc1cccc(C(F)(F)F)c1)C(=O)N[C@@H](CC1CCCNC1=O)C(=O)CO` (stereo partly shown) [Compound 99], the EC50 was less than 0.05 µM.
Work on `CC(C)C[C@H](NC(=O)C(=O)Nc1ccccc1F)C(=O)N[C@@H](C[C@@H]1CCNC1=O)C(=O)COC(=O)C1CCN(C2CCCCC2)CC1` [Compound 6, (S)-3-((S)-2-(2-((2-fluorophenyl)amino)-2-oxoacetamido)-4-methylpentanamido)-2-oxo-4-((S)-2-oxopyrrolidin-3-yl)butyl 1-cyclohexylpiperidine-4-carboxylate] yielded an EC50 of 0.05 to 0.2 µM.
For `Cc1ccccc1NC(=O)C(=O)N[C@@H](CC1CC1)C(=O)N[C@@H](C[C@@H]1CCCNC1=O)C(=O)CO` [Compound 88, N^1-((S)-3-cyclopropyl-1-(((S)-4-hydroxy-3-oxo-1-((S)-2-oxopiperidin-3-yl)butan-2-yl)amino)-1-oxopropan-2-yl)-N^2-(o-tolyl)oxalamide], the EC50 was less than 0.05 µM.
For `CC(=O)OCC(=O)[C@H](C[C@@H]1CCCNC1=O)NC(=O)[C@H](CC(C)C)NC(=O)C(=O)Nc1ccccc1F` [Compound 105, (S)-3-((S)-2-(2-((2-fluorophenyl)amino)-2-oxoacetamido)-4-methylpentanamido)-2-oxo-4-((S)-2-oxopiperidin-3-yl)butyl acetate], the EC50 was 0.05 to 0.2 µM.
In the case of `CC1(C)[C@@H]2[C@@H](C(=O)N[C@H](C#N)C[C@@H]3CCCNC3=O)N(C(=O)c3ccnc(C(F)(F)F)c3)C[C@@H]21` [Compound 130, (1R,2S,5S)-N-((S)-1-cyano-2-((S)-2-oxopiperidin-3-yl)ethyl)-6,6-dimethyl-3-(2-(trifluoromethyl)isonicotinoyl)-3-azabicyclo[3.1.0]hexane-2-carboxamide], the EC50 is reported as greater than 1 µM.
`CC(C)(C)C[C@H](NC(=O)C(=O)NC(C)(C)C)C(=O)N[C@@H](C[C@@H]1CCCNC1=O)C(=O)CO` [Compound 89, N^1-(tert-butyl)-N^2-((S)-1-(((S)-4-hydroxy-3-oxo-1-((S)-2-oxopiperidin-3-yl)butan-2-yl)amino)-4,4-dimethyl-1-oxopentan-2-yl)oxalamide] showed an EC50 of 0.05 to 0.2 µM.
Compound `CC(C)C[C@H](NC(=O)OCc1cccc(Cl)c1)C(=O)N[C@@H](C[C@@H]1CCNC1=O)C(=O)COC(=O)C(C)C` [Compound 120, (S)-3-((S)-2-((((3-chlorobenzyl)oxy)carbonyl)amino)-4-methylpentanamido)-2-oxo-4-((S)-2-oxopyrrolidin-3-yl)butyl isobutyrate] has an EC50 greater than 1 µM.
`CC(C)C[C@H](NC(=O)C(=O)Nc1ccccc1F)C(=O)N[C@@H](C[C@@H]1CCCNC1=O)C(=O)COC(=O)c1ccccc1C#N` [Compound 138, (S)-3-((S)-2-(2-((2-fluorophenyl)amino)-2-oxoacetamido)-4-methylpentanamido)-2-oxo-4-((S)-2-oxopiperidin-3-yl)butyl 2-cyanobenzoate] was tested, and the EC50 was 0.05 to 0.2 µM.
`CC1(C)[C@@H]2[C@@H](C(=O)N[C@H](C#N)C[C@@H]3CCNC3=O)N(C(=O)C(=O)NC3(C(F)(F)F)CC3)C[C@@H]21` [Compound 65, (1R,2S,5S)-N-((S)-1-cyano-2-((S)-2-oxopyrrolidin-3-yl)ethyl)-6,6-dimethyl-3-(2-oxo-2-((1-(trifluoromethyl)cyclopropyl)amino)acetyl)-3-azabicyclo[3.1.0]hexane-2-carboxamide] was tested, and the EC50 was greater than 1 µM.
For `CC(C)C[C@H](NC(=O)C(=O)NCC(F)(F)F)C(=O)N[C@@H](C[C@@H]1CCNC1=O)C(=O)CO` [Compound 26], the EC50 was greater than 1 µM.
`Cc1ccccc1NC(=O)C(=O)N[C@@H](CC1CCCCC1)C(=O)N[C@@H](C[C@@H]1CCNC1=O)C(=O)CO` [Compound 8, N^1-((S)-3-cyclohexyl-1-(((S)-4-hydroxy-3-oxo-1-((S)-2-oxopyrrolidin-3-yl)butan-2-yl)amino)-1-oxopropan-2-yl)-N^2-(o-tolyl)oxalamide] showed an EC50 of 0.2 to 0.5 µM.
